From paper PMC3242765, “Inhibitors of Alphavirus Entry and Replication Identified with a Stable Chikungunya Replicon Cell Line and Virus-Based Assays” (PLoS ONE, 2011)

test system: SFV-Rluc; details: not given

| SMILES | SFV replication % left (surviving fraction, remaining percentage of SFV replication) [%] |
| --- | --- |
| CC(C)[N+](C)(CCOC(=O)C1c2ccccc2Oc2ccccc21)C(C)C.[Br-] [PC-171] | 77.0 |
| CC(Cc1ccc2c(c1)OCO2)NCC(O)c1ccc(O)c(O)c1.Cl (stereo not shown) [PC-177] | 128.4 |
| Cc1nnc(NS(=O)(=O)c2ccc(N)cc2)s1 [PC-203] | 89.6 |
| CC(CN1c2ccccc2Sc2ccccc21)N(C)C.Cl (stereo not shown) [PC-169] | 48.8 |
| O=C1NS(=O)(=O)c2ccccc21.[Na] [PC-183] | 105.0 |

same assay, conditions: Supplementary Table 2, moderately active compounds (25 - 60% remaining), primary screen at 50 µM

| SMILES | % left (remaining SFV replication) [%] |
| --- | --- |
| C=CCC(=NOS(=O)(=O)[O-])SC1OC(CO)C(O)C(O)C1O.O.[K+] (stereo not shown) [NC-096] | 47.6 |
| CCCCNc1ccc(C(=O)OCCN(C)C)cc1.Cl [PC-032] | 45.2 |
| C[C@@H]1O[C@@H](OC[C@H]2O[C@@H](Oc3c(-c4ccc(O)c(O)c4)oc4cc(O)cc(O)c4c3=O)[C@H](O)[C@@H](O)[C@@H]2O)[C@H](O)[C@H](O)[C@H]1O [NC-090] | 44.1 |
| CCN(CC)CCCC(C)Nc1cc(/C=C/c2ccccc2Cl)nc2cc(Cl)ccc12 (stereo not shown) [NC-066] | 45.8 |
| COc1cc(C=O)ccc1O [NC-106] | 47.9 |
| COc1cc(C(=O)O)cc(OC)c1OC [NC-102] | 34.1 |
| Cl.Cl.OCCN1CCN(CCC=C2c3ccccc3Sc3ccc(Cl)cc32)CC1 [PC-050] | 55.2 |
| NC(=O)N1c2ccccc2C=Cc2ccccc21 [PC-037] | 57.3 |
| O=C(c1ccccc1)c1cc2c(ccc3ccccc32)oc1=O [NC-006] | 39.9 |
| CC(Cc1ccc(O)c(O)c1)C(C)Cc1ccc(O)c(O)c1 (stereo not shown) [NC-071] | 35.6 |

same assay, conditions: primary screening of chemical libraries; compounds tested at 50 µM

| SMILES | SFV replication % left [%] |
| --- | --- |
| Cl.c1ccc(CN(CC2=NCCN2)c2ccccc2)cc1 [PC-014] | 38.7 |
| COc1ccc2ccc(=O)oc2c1 [NC-124] | 53.2 |
| O=c1c(O)c(-c2cc(O)c(O)c(O)c2)oc2cc(O)cc(O)c12 [NC-068] | 2.0 |
| O=C(O)c1cc(O)cc(O)c1 [NC-027] | 6.9 |
| C[C@]12CC[C@H](O)C[C@H]1CC[C@@H]1[C@@H]2CC[C@]2(C)[C@@H](C3=CC(=O)OC3)[C@@H](O)C[C@]12O [NC-043] | 102.7 |
| O=C(O)Cc1cccc(O)c1 [NC-051] | 110.8 |
| C=CCC(=NOS(=O)(=O)[O-])SC1OC(CO)C(O)C(O)C1O.O.[K+] (stereo not shown) [NC-096] | 47.6 |
| CCCCNc1ccc(C(=O)OCCN(C)C)cc1.Cl [PC-032] | 45.4 |
| C[C@H](N)[C@H](O)c1cccc(O)c1.O=C(O)C(O)C(O)C(=O)O [PC-114] | 96.5 |
| CC[C@H]1CN2CCc3cc(OC)c(OC)cc3[C@@H]2C[C@@H]1C[C@H]1NCCc2cc(OC)c(OC)cc21.Cl.Cl [PC-072] | 63.1 |
| CCN(CC)C(C)CN1c2ccccc2Sc2ccccc21.Cl (stereo not shown) [PC-074] | 20.1 |
| C[C@@H]1O[C@@H](OC[C@H]2O[C@@H](Oc3c(-c4ccc(O)c(O)c4)oc4cc(O)cc(O)c4c3=O)[C@H](O)[C@@H](O)[C@@H]2O)[C@H](O)[C@H](O)[C@H]1O [NC-090] | 44.1 |
| CCCCNCC(O)c1ccc(O)cc1 (stereo not shown) [PC-019] | 67.1 |
| OCCN1CCN(CCCN2c3ccccc3C=Cc3ccccc32)CC1 [PC-139] | 27.5 |
| O=S(=O)(O)NC1CCCCC1 [PC-053] | 74.9 |
| C[N+]1(C)[C@@H]2CC[C@H]1C[C@@H](OC(=O)C(CO)c1ccccc1)C2.O=[N+]([O-])[O-] (stereo partly shown) [PC-018] | 46.8 |
| COc1cc(/C=C/C(=O)O)ccc1O [NC-039] | 63.4 |
| C[C@@H]1O[C@@H](O[C@H]2C[C@@H](O)[C@]3(CO)[C@H]4[C@H](O)C[C@]5(C)[C@@H](C6=CC(=O)OC6)CC[C@]5(O)[C@@H]4CC[C@]3(O)C2)[C@H](O)[C@H](O)[C@H]1O [PC-140] | 90.9 |
| CCN(CC)CCCC(C)Nc1cc(/C=C/c2ccccc2Cl)nc2cc(Cl)ccc12 (stereo not shown) [NC-066] | 45.8 |
| CC[C@@]1(O)C(=O)OCc2c1cc1n(c2=O)Cc2cc3ccccc3nc2-1 [NC-099] | 87.7 |
| Br.CC(Cc1ccc(O)cc1)NCC(O)c1cc(O)cc(O)c1 (stereo not shown) [PC-081] | 106.6 |
| C[C@H](CCC(=O)O)[C@H]1CC[C@H]2[C@@H]3CC[C@@H]4C[C@H](O)CC[C@]4(C)[C@H]3C[C@H](O)[C@]12C [PC-054] | 86.5 |

| SMILES | SFV replication % left [%] |
| --- | --- |
| O[C@H]1[C@H](O)[C@@H](O)[C@H](O)[C@@H](O)[C@H]1O [PC-100] | 106.0 |
| Nc1ccc(C(=O)O)cc1 [PC-010] | 56.5 |
| NS(=O)(=O)c1cc2c(cc1Cl)N=CNS2(=O)=O [PC-045] | 90.3 |
| CCCCC1C(=O)N(c2ccccc2)N(c2ccc(O)cc2)C1=O (stereo not shown) [PC-143] | 84.8 |
| O=C(O)c1ccccc1 [NC-005] | 71.6 |
| CNC(C)C(O)c1ccc(O)cc1 (stereo not shown) [PC-094] | 94.4 |
| CN(C)CC[C@@H](c1ccc(Br)cc1)c1ccccn1.O=C(O)/C=C\C(=O)O [PC-058] | 69.6 |
| Cc1ncc([N+](=O)[O-])n1CCO [PC-121] | 69.2 |
| CCN(CCO)CCCC(C)Nc1ccnc2cc(Cl)ccc12.O=S(=O)(O)O (stereo not shown) [PC-093] | 128.9 |
| O=C(O)c1ccc(O)c(O)c1 [NC-026] | 124.5 |
| O=C1c2c(O)cc(O)cc2O[C@H](c2ccc(O)c(O)c2)[C@H]1O [NC-100] | 93.7 |
| COc1cc(C=O)ccc1O [NC-106] | 47.9 |
| O=C(CO)c1ccccc1 [NC-047] | 129.7 |
| COc1cc(C(=O)O)cc(OC)c1OC [NC-102] | 34.0 |
| CC(=O)c1cccc(O)c1 [NC-048] | 125.8 |
| Oc1ccc(O)cc1 [NC-053] | 16.9 |
| Oc1ccc(C=Cc2cc(O)cc(O)c2)cc1 [NC-086] | 103.4 |
| CC(=O)OCC(=O)[C@@]1(O)CC[C@H]2[C@@H]3CCC4=CC(=O)CC[C@]4(C)[C@H]3[C@@H](O)C[C@@]21C [PC-092] | 116.8 |
| O=C(O)/C=C\C(=O)O.O=C(O)/C=C\C(=O)O.OCCN1CCN(CCCN2c3ccccc3Sc3ccc(C(F)(F)F)cc32)CC1 [PC-084] | 98.9 |
| C[C@@H]1O[C@@H](Oc2c(-c3ccc(O)c(O)c3)oc3cc(O)cc(O)c3c2=O)[C@H](O)[C@H](O)[C@H]1O.O.O [NC-083] | 11.4 |
| Cl.Cl.OCCN1CCN(CCC=C2c3ccccc3Sc3ccc(Cl)cc32)CC1 [PC-050] | 55.2 |
| COc1cc2ccc(=O)oc2c(O)c1OC [NC-111] | 77.8 |

| SMILES | SFV replication % left [%] |
| --- | --- |
| O=c1oc2c3c4c(cc2c2c1CCC2)CCCN4CCC3 [NC-130] | 82.1 |
| NC(=O)N1c2ccccc2C=Cc2ccccc21 [PC-037] | 57.2 |
| CN1CCC(CN2c3ccccc3Sc3ccccc32)C1 (stereo not shown) [PC-115] | 22.5 |
| O=c1cc(C(F)(F)F)c2cc3c4c(c2o1)CCCN4CCC3 [NC-131] | 52.6 |
| COc1cc(C(=O)O)cc(OC)c1O [NC-097] | 61.1 |
| Oc1cc(O)c2c(c1)OC(c1ccc(O)c(O)c1)C(O)C2O (stereo not shown) [NC-060] | 136.3 |
| O=C(c1ccccc1)c1cc2c(ccc3ccccc32)oc1=O [NC-006] | 39.9 |
| O=c1oc2c(O)c(O)cc3c(=O)oc4c(O)c(O)cc1c4c23 [NC-033] | 64.9 |
| Oc1cc(O)c2c(c1)O[C@H](c1ccc(O)c(O)c1)[C@H](O)C2 [NC-034] | 97.1 |
| CCCCCCCCCCCCCCCC[N+](C)(C)C.[Br-] [PC-039] | 75.0 |
| CC(C)(C)NCC(O)COc1cccc2c1CC(O)C(O)C2 (stereo not shown) [PC-123] | 60.5 |
| CC(C)NCC(O)c1ccccc1Cl.Cl.O (stereo not shown) [PC-051] | 63.7 |
| O=c1cc(-c2ccccc2)oc2cc(O)cc(O)c12 [NC-013] | 18.1 |
| Oc1ccc(C(O)CNCCCCCCNCC(O)c2ccc(O)c(O)c2)cc1O (stereo not shown) [PC-088] | 124.9 |
| Cc1cccc(Nc2ccccc2C(=O)O)c1C [PC-108] | 103.5 |
| O=C1NC2NC(=O)NC2N1 (stereo not shown) [PC-004] | 55.2 |
| C[C@](N)(Cc1ccc(O)c(O)c1)C(=O)O [PC-118] | 99.1 |
| O=c1oc2ccccc2c(O)c1Cc1c(O)c2ccccc2oc1=O [PC-063] | 65.6 |
| CN1C(=O)CN=C(c2ccc(Cl)cc2)c2cc(Cl)ccc21 [PC-043] | 64.0 |
| Cc1ccc2oc(=O)ccc2c1 [NC-116] | 83.6 |
| O=c1ccc2ccc(O)cc2o1 [NC-115] | 78.4 |
| CC(Cc1ccc(O)c(O)c1)C(C)Cc1ccc(O)c(O)c1 (stereo not shown) [NC-071] | 35.6 |

| SMILES | SFV replication % left [%] |
| --- | --- |
| CCC(NC(C)C)C(O)c1ccc(O)c(O)c1 (stereo not shown) [PC-101] | 90.7 |
| CC(C)(CO)[C@@H](O)C(=O)NCCC(=O)[O-].CC(C)(CO)[C@@H](O)C(=O)NCCC(=O)[O-].[Ca+2] [PC-035] | 67.9 |
| CC(N)C(O)c1ccc(O)c(O)c1.Cl (stereo not shown) [PC-133] | 118.0 |
| CCN(CC)c1ccc2cc(C(=O)c3cccs3)c(=O)oc2c1 [NC-022] | 15.6 |
| CC(=O)c1ccc(O)cc1 [NC-049] | 29.4 |
| CN(Cc1cc(Br)cc(Br)c1N)C1CCCCC1.Cl [PC-024] | 64.8 |
| O=C(N[C@H](CO)[C@H](O)c1ccc([N+](=O)[O-])cc1)C(Cl)Cl [PC-040] | 73.8 |
| Cc1cc(=O)oc2cc(O)cc(O)c12 [NC-122] | 66.7 |
| CCN(CC)C(C)C(=O)c1ccccc1.Cl (stereo not shown) [PC-064] | 47.1 |
| COc1c2ccoc2cc2oc(=O)ccc12 [NC-008] | 46.8 |
| COc1ccc(-c2cc(=O)c3c(O)cc(O)cc3o2)cc1 [NC-001] | 78.1 |
| O=c1oc2cc(O)ccc2cc1-c1nc2ccccc2o1 [NC-007] | 21.0 |
| CC(C)OC(=O)c1cc(O)c(O)c(O)c1 [NC-054] | 124.0 |
| COc1cc2ccc(=O)oc2cc1O [NC-114] | 81.9 |
| CNCCC=C1c2ccccc2CCc2ccccc21.Cl [PC-136] | 5.3 |
| O=C1Nc2ccc(Cl)cc2C(c2ccccc2)=NC1O (stereo not shown) [PC-141] | 79.1 |
| Oc1cc(O)c2cc(O)c(-c3ccc(O)c(O)c3)[o+]c2c1.[Cl-] [NC-019] | 24.5 |
| NC(=O)c1cccnc1 [PC-129] | 116.9 |
| NCC(O)c1cccc(O)c1 (stereo not shown) [PC-135] | 126.3 |
